{
  "source": "patent US8476037B2",
  "about": "“Method for screening of antiviral agents” (priority 2010, dated 2013)",
  "molecular_target": "M2(1-49) channel forming segment of the M2 protein (Influenza A virus, UniProt P0DOF5)",
  "sequence (P0DOF5 1-49 limits assumed)": "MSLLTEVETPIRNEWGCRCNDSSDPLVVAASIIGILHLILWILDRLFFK",
  "assay_type": "cell-based",
  "data": [
    {"smiles": "Cl.NC12CC3CC(CC(C3)C1)C2", "note": "[amantadine, 1-aminoadamantane hydrochloride]", "values": [
      {"measurement": "expression of M2(1-49) protein in SPP culture", "value": "the M2(1-49) protein was expressed"},
      {"measurement": "rescue of expression of M2(1-49)", "setting": "[…], addition of amantadine", "value": "rescued"}
    ]}
  ]
}
